Results from ChEMBL document CHEMBL5678796, “A highly potent and selective farnesyltransferase inhibitor ABT-100 in preclinical studies” (Anticancer Drugs, 2005).

Legend:
[1] = system: HCT-116; assay: Antitumor activity against human HCT-116 cells xenografted in nu/nu CD1 mouse assessed as tumor volume at 12.5 mg/kg, sc preinoculated with cells for 5 days followed by once daily compound administration for 21 days and measured on day 25 (reference value: 1569 +/- 165 mm^3); assay type: functional; conditions: time 25 day
[2] = Inhibition of recombinant human FTase incubated for 30 mins in presence of [3H]FPP by SPA based Topcount scintillation plate reader analysis
[3] = Inhibition of recombinant bovine GGTase I incubated for 30 min sin presence of [3H]FPP by SPA based Topcount scintillation plate reader analysis; set-up: species or system Bos taurus
[4] = Selectivity index, ratio of IC50 for inhibition of bovine GGTase 1 to IC50 for inhibition of recombinant human FTase
[5] = system: NIH3T3; assay: Inhibition of anchorage-independent growth in H-Ras transformed mouse NIH3T3 cells assessed as inhibition of colony formation incubated for 14 days in presence of 10% bovine serum by imaging based soft agar colony formation assay; assay type: functional, cell-based
[6] = Half-life in rat at 5 mg/kg, iv; assay type: ADME, organism-based; conditions: in vivo
[7] = system: HCT-116; assay: Antitumor activity against human HCT-116 cells xenografted in nu/nu CD1 mouse assessed as tumor volume at 50 mg/kg, sc preinoculated with cells for 14 days followed by once daily compound administration for 21 days and measured on day 40 (reference value: 2973 +/- 593 mm^3); assay type: functional; conditions: time 40 day
[8] = Half-life in dog at 2.5 mg/kg, iv; assay type: ADME, organism-based, Canis lupus familiaris; conditions: in vivo
[9] = Volume of distribution in dog at 2.5 mg/kg, iv; assay type: ADME, organism-based, Canis lupus familiaris; conditions: in vivo
[10] = Cmax in rat at 5 mg/kg, po; assay type: ADME, organism-based; conditions: in vivo
[11] = AUC in rat at 5 mg/kg, po; assay type: ADME, organism-based; conditions: in vivo
[12] = Cmax in rat at 25 mg/kg, po; assay type: ADME, organism-based; conditions: in vivo
[13] = AUC in rat at 25 mg/kg, po; assay type: ADME, organism-based; conditions: in vivo
[14] = AUC in dog at 2.5 mg/kg, po; assay type: ADME, organism-based, Canis lupus familiaris; conditions: in vivo
[15] = Oral bioavailability in dog at 2.5 mg/kg; assay type: ADME, organism-based, Canis lupus familiaris; conditions: in vivo
[16] = system: HCT-116; assay: Antitumor activity against human HCT-116 cells xenografted in nu/nu CD1 mouse assessed as tumor volume at 6.25 mg/kg, sc preinoculated with cells for 5 days followed by once daily compound administration for 21 days and measured on day 25 (reference value: 1569 +/- 165 mm^3); assay type: functional; conditions: time 25 day
[17] = system: HCT-116; assay: Antitumor activity against human HCT-116 cells xenografted in nu/nu CD1 mouse assessed as reduction in tumor volume by measuring tumor to control ratio at 12.5 mg/kg, sc preinoculated with cells for 5 days followed by once daily compound administration for 21 days and measured on day 25; assay type: functional; conditions: time 25 day
[18] = system: HCT-116; assay: Antitumor activity against human HCT-116 cells xenografted in nu/nu CD1 mouse assessed as reduction in tumor volume by measuring tumor to control ratio at 6.25 mg/kg, sc preinoculated with cells for 5 days followed by once daily compound administration for 21 days and measured on day 25; assay type: functional; conditions: time 25 day
[19] = system: HCT-116; assay: Antitumor activity against human HCT-116 cells xenografted in nu/nu CD1 mouse assessed as increase in life span at 25 mg/kg, sc preinoculated with cells for 5 days followed by once daily compound administration for 21 days and measured on day 25 relative to vehicle in time to 1 cm^3 tumor; assay type: functional; conditions: HCT-116, 600 h, time 25 day
[20] = system: HCT-116; assay: Antitumor activity against human HCT-116 cells xenografted in nu/nu CD1 mouse assessed as increase in life span at 6.25 mg/kg, sc preinoculated with cells for 5 days followed by once daily compound administration for 21 days and measured on day 25 relative to vehicle in time to 1 cm^3 tumor; assay type: functional; conditions: HCT-116, 600 h, time 25 day
[21] = system: HCT-116; assay: Antitumor activity against human HCT-116 cells xenografted in nu/nu CD1 mouse assessed as reduction in tumor volume by measuring test to control ratio at 50 mg/kg, sc preinoculated with cells for 14 days followed by once daily compound administration for 21 days and measured on day 40; assay type: functional; conditions: time 40 day
[22] = system: HCT-116; assay: Antitumor activity against human HCT-116 cells xenografted in nu/nu CD1 mouse assessed as increase in life span at 50 mg/kg, sc preinoculated with cells for 14 days followed by once daily compound administration for 21 days and measured on day 40 relative to vehicle in time to 1 cm^3 tumor; assay type: functional; conditions: HCT-116, 960 h, time 40 day
[23] = system: HCT-116; assay: Antitumor activity against human HCT-116 cells xenografted in nu/nu CD1 mouse assessed as tumor volume at 100 mg/kg, sc preinoculated with cells for 5 days followed by once every 2 days compound administration for 11 times and measured on day 22 (reference value: 1557 +/- 370 mm^3); assay type: functional; conditions: time 22 day
[24] = system: HCT-116; assay: Inhibition of VEGF mRNA expression in human HCT-116 cells incubated for 72 hrs by qRT-PCR analysis; assay type: functional, cell-based; conditions: dose 1-30 µmol/L
[25] = system: Mus musculus; assay: Antiangiogenic activity in human recombinant VEGF-stimulated CF1 mouse corneal model assessed as inhibition of new blood growth area at 25 mg/kg, sc prestimulated with VEGF followed by compound administration and measured on day 7 by slit lamp biomicroscopic analysis relative to control; assay type: functional; conditions: CF1, 168 h, time 7 day
[26] = system: Mus musculus; assay: Antiangiogenic activity in human recombinant VEGF-stimulated CF1 mouse corneal model assessed as inhibition of new blood growth area at 50 mg/kg, sc prestimulated with VEGF followed by compound administration and measured on day 7 by slit lamp biomicroscopic analysis relative to control; assay type: functional; conditions: CF1, 168 h, time 7 day
[27] = system: Mus musculus; assay: Antiangiogenic activity in human recombinant VEGF-stimulated CF1 mouse corneal model assessed as inhibition of new blood growth area at 100 mg/kg, sc prestimulated with VEGF followed by compound administration and measured on day 7 by slit lamp biomicroscopic analysis relative to control; assay type: functional; conditions: CF1, 168 h, time 7 day
[28] = system: Mus musculus; assay: Antiangiogenic activity in human recombinant bFGF-stimulated CF1 mouse corneal model assessed as inhibition of new blood growth area at 25 mg/kg, sc prestimulated with bFGF followed by compound administration and measured on day 5 by slit lamp biomicroscopic analysis relative to control; assay type: functional; conditions: CF1, 120 h, time 5 day
[29] = Inhibition of GGTase in H-Ras transformed mouse NIH3T3 cells using Rap 1A as substrate assessed as inhibition of substrate prenylation in presence of 10% bovine serum by immunoblot analysis; assay type: cell-based
[30] = Inhibition of FTase in human HCT-116 cells expressing low level of P-gp1 using Ras as substrate assessed as inhibition of substrate post-translation processing in presence of 10% FBS by immunoblot analysis; assay type: cell-based
[31] = Inhibition of FTase in human HCT-15 cells expressing high level of P-gp1 using Ras as substrate assessed as inhibition of substrate post-translation processing in presence of 20% human serum by immunoblot analysis; assay type: cell-based
[32] = Selectivity ratio of EC50 for inhibition of GGTase in H-Ras transformed mouse NIH3T3 cells using Rap 1A as substrate assessed as inhibition of substrate prenylation in presence of 10% bovine serum to EC50 for inhibition of FTase in H-Ras transformed mouse NIH3T3 cells using Ras as substrate assessed as inhibition of substrate prenylation in presence of 10% bovine serum; conditions: condition cancer

Cn1cncc1[C@](O)(COc1ccc(C#N)cc1-c1ccc(OC(F)(F)F)cc1)c1ccc(C#N)cc1 [ABT-100]
Activity [1]: 721 mm3
IC50 [2]: 0.05 nM
IC50 [3]: > 10000 nM
Ratio IC50 [4]: > 100000
EC50 ([5]; NIH3T3, 336 h): 0.9 nM
inhibition ([5]; time 14.0 day): Dose-Dependent Effect
half-life [6]: 2.3 h
Activity [7]: 1530 mm3
half-life [8]: 6.8 h
Vd [9]: 3.3 L/kg
Cmax [10]: 80 ng/mL
AUC [11]: 450 ng·h/mL
Cmax [12]: 740 ng/mL
AUC [13]: 4620 ng·h/mL
AUC [14]: 2840 ng·h/mL
bioavailability [15]: 35.1%
Activity [16]: 899 mm3
T/C [17]: 39%
T/C [18]: 56%
ILS at 25 mg/kg [19]: 100%
ILS at 6.25 mg/kg [20]: 50%
T/C [21]: 45%
ILS at 50 mg/kg [22]: 52%
Activity [23]: 691 mm3
inhibition [24]: Dose-Dependent Effect
inhibition in vivo at 25 mg/kg [25]: 8%
inhibition in vivo at 50 mg/kg [26]: 25%
inhibition in vivo at 100 mg/kg [27]: 39%
inhibition in vivo at 25 mg/kg [28]: 32%
EC50 [29]: > 30000 nM
EC50 [30]: 0.43 nM
EC50 [31]: 1.1 nM
Ratio EC50 [32]: >41000
